Assay results reported in paper PMC11785791, “Cryo-EM structure of the calcium-sensing receptor complexed with the kokumi substance γ-glutamyl-valyl-glycine” (Scientific Reports, 2025).
Positions count from the first letter of the chain named. *1 amine or outer side, *2 acyl side, *3 side chain or, on linkers, in order; H or OH if unused. Where a SMILES comes first, the peptide text is derived from it. γGlu = O=C(O)[CH](CCC(=O)[*:2])N[*:1]

How the values were obtained:
human CaSR (wild type) = molecular target: T1, human CaSR (wild type) (Homo sapiens, UniProt P41180); assay: Calcium mobilization assay, wild-type CaSR in PEAKrapid cells; assay type: cell-based; details: WT CaSR; for EC50: PEAKrapid cells, 1 mM CaCl2 in assay buffer, mean ± s.e.m., n = 3; for Response in calcium mobilization assay: in words
T1 construct: expressed in transfected cells; host or cells: PEAKrapid cells (ATCC), pcDNA 3.1, transient transfection
T1 sequence (P41180 20-1078): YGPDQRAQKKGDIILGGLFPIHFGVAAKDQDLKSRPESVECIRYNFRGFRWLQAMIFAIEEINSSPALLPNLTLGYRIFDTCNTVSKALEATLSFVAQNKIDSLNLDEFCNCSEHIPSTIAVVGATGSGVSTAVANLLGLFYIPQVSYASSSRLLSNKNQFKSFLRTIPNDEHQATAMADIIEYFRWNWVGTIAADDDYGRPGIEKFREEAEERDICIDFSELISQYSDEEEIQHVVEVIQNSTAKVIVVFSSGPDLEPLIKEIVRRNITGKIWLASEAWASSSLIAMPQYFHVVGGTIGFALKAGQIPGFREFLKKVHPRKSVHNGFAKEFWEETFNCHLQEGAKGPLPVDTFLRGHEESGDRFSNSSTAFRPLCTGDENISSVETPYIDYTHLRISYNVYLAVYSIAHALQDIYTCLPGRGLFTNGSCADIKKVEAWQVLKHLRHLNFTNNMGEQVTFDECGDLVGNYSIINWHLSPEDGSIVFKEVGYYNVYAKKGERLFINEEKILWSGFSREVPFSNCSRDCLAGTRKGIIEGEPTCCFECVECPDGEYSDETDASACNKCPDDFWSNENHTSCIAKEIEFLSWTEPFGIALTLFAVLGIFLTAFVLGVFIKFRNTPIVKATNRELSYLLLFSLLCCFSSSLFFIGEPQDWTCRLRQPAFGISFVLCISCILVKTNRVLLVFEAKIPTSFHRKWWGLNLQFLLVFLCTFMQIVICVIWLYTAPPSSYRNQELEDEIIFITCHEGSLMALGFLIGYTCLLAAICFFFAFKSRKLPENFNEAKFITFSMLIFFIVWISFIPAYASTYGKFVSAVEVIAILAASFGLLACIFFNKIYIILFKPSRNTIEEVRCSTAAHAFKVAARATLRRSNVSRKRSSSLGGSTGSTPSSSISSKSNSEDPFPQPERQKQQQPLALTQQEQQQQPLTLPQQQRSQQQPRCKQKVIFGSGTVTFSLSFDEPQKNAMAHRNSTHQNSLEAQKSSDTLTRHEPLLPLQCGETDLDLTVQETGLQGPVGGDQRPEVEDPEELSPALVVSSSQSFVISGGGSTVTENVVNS
Procedure: (§1) The CaSR receptor responsiveness was assessed by using PEAK^rapid cells (ATCC, Manassas, VA, USA) transiently transfected with the receptor DNA by the method reported by Kitajima et al.[6]. Briefly, human CaSR or its mutant cDNA with a signal sequence (MAFYSCCWVLLALTWHTSA) followed by FLAG-tag (DYKDDDDK) were inserted into pcDNA 3.1 expression vectors in Opti-MEM I medium (Thermo Fisher Scientific), mixed with FuGENE 6 (Roche), and poured onto PEAK^rapid cells grown at a submaximal concentration. After culturing for 24 h in 96-well plates, the cells were incubated with 5 µM Calcium-5 solution (Calcium-5 assay kit, Molecular Devices) for 45–60 min, and measurements were performed using a plate reader (FDSS/µCELL, Hamamatsu Photonics, Shizuoka, Japan) and its associated software. The activation of CaSR expressed in cells increases the intracellular Ca^2+ concentration, which is measured using a Ca^2+-sensitive dye. The binding of Ca^2+ to the Ca^2+-sensitive dye increases dye fluorescence, with excitation at 485 nm and emission at 525 nm. Test compounds were dissolved and administered in the assay buffer (146 mM NaCl, 1 mM MgSO4, 20 mM HEPES, 1 mM CaCl2, 2.5 mM probenecid, and 1.39 mM glucose, pH 7.4). Transiently transfected cells were challenged with compounds and compared with the vehicle alone and/or mock-transfected cells. The concentration dependence of the fluorescence intensity (influx of Ca^2+) was analyzed using the plate reader at 1 s intervals for 180 s. For the dose–response curve calculations, peak fluorescence responses after the addition of compounds were corrected for, normalized to the background fluorescence (ΔF/F = –F − F0)/F0), and baseline noise was subtracted. Dose–response curves were calculated by non-linear regression using GraphPad PRISM 8.0.

human CaSR E297A mutant = molecular target: T2, human CaSR E297A mutant (Homo sapiens, UniProt P41180, E297A); assay: Calcium mobilization assay, CaSR E297A mutant; assay type: cell-based; details: for Response in calcium mobilization assay: in words
T2 construct: (N); expressed in transfected cells; host or cells: PEAKrapid cells (ATCC), pcDNA 3.1, transient transfection
T2 sequence (P41180 20-1078 E297A): T1 sequence (P41180 20-1078) with E278A
Procedure: as §1

| SMILES | EC50 (human CaSR (wild type)) [µM] | Response in calcium mobilization assay (human CaSR (wild type)) | Response in calcium mobilization assay (human CaSR E297A mutant) | Emax (% of wild-type values) (human CaSR E297A mutant) | EC50 (human CaSR E297A mutant; mean ± s.e.m., n = 3) [µM] |
| --- | --- | --- | --- | --- | --- |
| CC(C)[C@H](NC(=O)CC[C@H](N)C(=O)O)C(=O)O [γ-EV, γ-glutamyl-valine] | 10.71 ± 0.1 | weak response | no response |  |  |
| N[C@@H](Cc1ccc(O)cc1)C(=O)O [L-Tyr, L-tyrosine] | 3900 ± 1100 | weak response | no response |  |  |
| CC(C)C(NC(=O)CCC(N)C(=O)O)C(=O)NCC(=O)O (stereo not drawn) [γ-EVG, γ-glutamyl-valyl-glycine] (γGlu-Val-Gly-OH; configuration not given here) | 0.18 ± 0.1 |  | greatly reduced the response |  |  |
| [Ca+2].[Cl-].[Cl-] [CaCl2] | 190 ± 400 |  |  | 86.0 % of WT | 6580 ± 300 |
